These results are taken from patent US11253515B2, “Pharmaceutical compositions and dosage forms” (IGNYTA, INC., priority 2017, dated 2022).

Data set [1] deals with anaplastic lymphoma kinase (ALK) (Homo sapiens, UniProt Q9UM73). The settings on record: background statement; cited from earlier work.
In data set [2] the target is TrkC (Homo sapiens, UniProt Q16288). To be noted: background statement; cited from earlier work.
Data set [3] in a line: Comparative pharmacokinetic study of F1 and F2 with lansoprazole (Example 12). The class given is in vivo, human. To be noted: 800 mg fixed dose, 23 healthy subjects, body weights 55 to 106 kg. As for the experimental part: A comparative pharmacokinetic study in healthy, human subjects was conducted comparing a 200 mg dosage strength of pharmaceutical composition F1 (as described in Example 11) with a 200 mg dosage strength pharmaceutical composition F2 (as described in Example 10).
Pharmaceutical compositions F1 and F2, along with and lansoprazole, were administered orally with approximately 240 mL of water, according to the randomization scheme. Lansoprazole was administered as 30 mg lansoprazole delayed-release capsules.
Subjects were randomized into two groups, A and B. Periods 1 and 2 were conducted as a crossover design under fasting conditions where all subjects received F1 and F2. […] A representative summary of Periods 1, 2, and 3 and the pharmaceutical compositions subjects in groups A and B will receive in each Period is found below.
Lansoprazole administration on days 1 to 9 was conducted in the morning, approximately 1.5 hours prior to administration of either F1 or F2 at hour 0 on day 4.
Subjects were randomized and received 3 out of 4 treatments in one of the following sequences: […] (i.e., Periods 1 and 2 were conducted as a crossover design under fasting conditions [Treatments A and B]). […] Each subject received each of the 3 assigned treatments on one occasion.
Treatments A and C utilized 200 mg strength F1 capsules.
Treatments B and D utilized 200 mg F2 capsules. […]

The nature of data set [4]: Single-dose food effect study in dogs. The class given is in vivo. To be noted: formulation that did not comprise at least one acidulant. The text has this: Such food effects can cause difficulty during human testing of drugs as the fed or fasted condition of the patient can cause exposure or bioavailability of drugs to vary widely.
Data set [5] has as its target TrkB (Homo sapiens, UniProt Q16620). To be noted: background statement; cited from earlier work.
For data set [6] the following is noted: human, in vivo.
A short description of data set [7]: Physical state and moisture uptake of 1:1 acid admixtures on storage. The class given is physicochemical. The settings on record: 40° C. and 75% RH, open top vial. As for the experimental part: (§1) The mixtures were prepared in duplicate for each sample, and stored in open top, 4 mL glass vials at (1) 60° C./dry heat and (2) 40° C. and 75% relative humidity (RH).
All admixture samples and the control samples stored at the 60° C. and dry heat condition remained as dry powders.

Data set [8] can be described thus: Excipient compatibility of 1:1 acid admixtures, HPLC after three months storage. The class given is physicochemical. To be noted: 1:1 weight ratio dry powder mixture, open vial. As for the experimental part:
as §1
The HPLC traces analyses were conducted on an Agilent 1100 LC, equipped with Agilent Diode Array Detector and Chemstation Software using the conditions found in the table below.

Where [9] appears, read: three months at 60° C. Dry Heat.

Chain of TrkB (Q16620 32-822): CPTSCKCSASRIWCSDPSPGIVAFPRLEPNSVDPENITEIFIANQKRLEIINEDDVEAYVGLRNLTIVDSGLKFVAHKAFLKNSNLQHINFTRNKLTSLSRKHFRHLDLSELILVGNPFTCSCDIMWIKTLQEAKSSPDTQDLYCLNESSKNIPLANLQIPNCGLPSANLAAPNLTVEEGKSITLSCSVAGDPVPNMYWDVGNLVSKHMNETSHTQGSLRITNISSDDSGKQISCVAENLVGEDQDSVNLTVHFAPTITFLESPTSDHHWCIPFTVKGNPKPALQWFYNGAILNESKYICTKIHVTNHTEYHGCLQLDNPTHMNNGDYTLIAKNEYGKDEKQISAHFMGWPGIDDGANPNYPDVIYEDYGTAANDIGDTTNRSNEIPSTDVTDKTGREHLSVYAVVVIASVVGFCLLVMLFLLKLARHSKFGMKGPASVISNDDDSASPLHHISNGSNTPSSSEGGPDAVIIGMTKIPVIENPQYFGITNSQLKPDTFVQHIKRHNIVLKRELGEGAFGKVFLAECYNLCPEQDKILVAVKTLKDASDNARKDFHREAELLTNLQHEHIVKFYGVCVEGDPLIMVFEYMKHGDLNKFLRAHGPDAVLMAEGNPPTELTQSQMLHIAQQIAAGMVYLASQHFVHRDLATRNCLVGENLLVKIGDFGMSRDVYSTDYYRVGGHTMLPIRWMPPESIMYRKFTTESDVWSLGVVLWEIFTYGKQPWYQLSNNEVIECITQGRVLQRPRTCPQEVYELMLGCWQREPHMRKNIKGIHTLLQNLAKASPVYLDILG
Chain of anaplastic lymphoma kinase (ALK) (Q9UM73 19-1620): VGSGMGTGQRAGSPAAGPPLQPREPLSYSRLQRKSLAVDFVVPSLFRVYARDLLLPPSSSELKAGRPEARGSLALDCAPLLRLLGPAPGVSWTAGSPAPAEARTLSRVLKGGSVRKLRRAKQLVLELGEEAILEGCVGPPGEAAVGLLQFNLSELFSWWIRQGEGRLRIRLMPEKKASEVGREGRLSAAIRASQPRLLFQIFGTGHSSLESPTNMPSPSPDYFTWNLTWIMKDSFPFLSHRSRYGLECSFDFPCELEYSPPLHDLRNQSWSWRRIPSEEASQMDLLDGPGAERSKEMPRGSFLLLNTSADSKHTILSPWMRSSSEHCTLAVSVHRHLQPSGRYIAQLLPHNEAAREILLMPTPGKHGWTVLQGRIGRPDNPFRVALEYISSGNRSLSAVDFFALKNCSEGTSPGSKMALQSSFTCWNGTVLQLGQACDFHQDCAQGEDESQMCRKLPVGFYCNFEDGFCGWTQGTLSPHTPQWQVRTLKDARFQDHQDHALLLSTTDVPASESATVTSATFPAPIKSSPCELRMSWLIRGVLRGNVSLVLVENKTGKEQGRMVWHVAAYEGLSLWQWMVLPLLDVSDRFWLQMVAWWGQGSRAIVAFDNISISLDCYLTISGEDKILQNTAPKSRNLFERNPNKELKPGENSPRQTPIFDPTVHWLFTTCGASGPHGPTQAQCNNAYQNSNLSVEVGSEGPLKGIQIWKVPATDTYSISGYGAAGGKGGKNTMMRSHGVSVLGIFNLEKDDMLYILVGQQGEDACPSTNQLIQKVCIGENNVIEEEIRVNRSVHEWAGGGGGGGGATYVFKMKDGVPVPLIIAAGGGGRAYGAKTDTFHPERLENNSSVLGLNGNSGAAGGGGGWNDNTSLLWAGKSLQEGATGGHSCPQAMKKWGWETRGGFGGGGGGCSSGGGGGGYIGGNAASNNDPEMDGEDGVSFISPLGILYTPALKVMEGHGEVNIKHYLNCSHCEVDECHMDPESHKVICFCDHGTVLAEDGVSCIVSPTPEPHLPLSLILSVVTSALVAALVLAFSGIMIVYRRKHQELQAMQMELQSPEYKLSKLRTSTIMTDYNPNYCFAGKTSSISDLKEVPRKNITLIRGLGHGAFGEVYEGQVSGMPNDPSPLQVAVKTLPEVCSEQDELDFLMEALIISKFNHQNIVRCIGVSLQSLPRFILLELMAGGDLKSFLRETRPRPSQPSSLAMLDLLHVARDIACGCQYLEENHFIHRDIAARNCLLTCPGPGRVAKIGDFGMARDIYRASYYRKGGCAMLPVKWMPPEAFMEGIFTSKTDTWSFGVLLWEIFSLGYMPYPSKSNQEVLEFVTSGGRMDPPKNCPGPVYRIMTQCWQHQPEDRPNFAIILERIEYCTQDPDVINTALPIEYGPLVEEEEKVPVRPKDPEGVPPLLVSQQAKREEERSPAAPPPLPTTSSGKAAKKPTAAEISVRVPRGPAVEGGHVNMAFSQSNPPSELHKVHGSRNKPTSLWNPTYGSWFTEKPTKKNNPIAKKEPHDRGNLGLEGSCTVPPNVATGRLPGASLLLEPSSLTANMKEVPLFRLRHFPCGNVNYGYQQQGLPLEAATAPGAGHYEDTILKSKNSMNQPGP
Chain of TrkC (Q16288 32-839): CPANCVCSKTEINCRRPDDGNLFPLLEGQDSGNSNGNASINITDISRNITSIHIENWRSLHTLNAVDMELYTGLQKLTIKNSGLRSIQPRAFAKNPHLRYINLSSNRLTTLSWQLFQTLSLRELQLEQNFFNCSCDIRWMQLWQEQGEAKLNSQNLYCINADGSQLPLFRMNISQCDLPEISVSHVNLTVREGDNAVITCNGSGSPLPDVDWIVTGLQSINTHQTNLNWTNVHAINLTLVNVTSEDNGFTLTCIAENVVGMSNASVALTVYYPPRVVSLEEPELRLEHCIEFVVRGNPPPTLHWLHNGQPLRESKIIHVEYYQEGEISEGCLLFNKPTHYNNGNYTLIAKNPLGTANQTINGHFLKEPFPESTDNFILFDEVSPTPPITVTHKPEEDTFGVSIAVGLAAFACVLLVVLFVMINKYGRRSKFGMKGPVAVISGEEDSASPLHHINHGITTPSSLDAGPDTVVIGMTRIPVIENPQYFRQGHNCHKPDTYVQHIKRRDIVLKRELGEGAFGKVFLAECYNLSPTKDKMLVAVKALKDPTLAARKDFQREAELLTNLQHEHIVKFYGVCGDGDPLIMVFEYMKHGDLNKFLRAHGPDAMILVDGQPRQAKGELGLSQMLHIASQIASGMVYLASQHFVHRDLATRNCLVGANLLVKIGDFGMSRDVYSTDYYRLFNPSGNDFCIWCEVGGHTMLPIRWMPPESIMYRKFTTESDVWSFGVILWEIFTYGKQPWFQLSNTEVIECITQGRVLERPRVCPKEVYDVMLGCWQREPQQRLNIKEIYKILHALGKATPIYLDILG

Regarding `CN1CCN(c2ccc(C(=O)Nc3n[nH]c4ccc(Cc5cc(F)cc(F)c5)cc34)c(NC3CCOCC3)c2)CC1` [N-[5-(3,5-difluorobenzyl)-1H-indazol-3-yl]-4-(4-methyl-piperazin-1-yl)-2-(tetrahydro-pyran-4-ylamino)-benzamide], the “inhibition of tyrosine kinase” value in data set [1], in data set [2] and in data set [5] was “potent inhibitor” each time. Further, the “correlation of total exposure with body weight or body surface area” value in data set [3] is given as “did not correlate with body weight or body surface area”. Further, the “exposure levels under fed conditions compared to fasting conditions” value in data set [4] is given as “approximately 2 fold”. Also, in data set [6], the “exposures with concomitant proton pump inhibitor drugs (PPIs), such as lansoprazole” value is reported as “variable”. Moreover, the “AUC higher when taken with food” value in data set [6] (400 mg/m2) is recorded as approximately 50%. Also, the “Cmax higher with food” value in data set [6] (400 mg/m2) is listed as “approximately 150%”. For the same compound, in data set [7], the “physical state after 13 days of storage” value is recorded as “remained dry”. Further, the “% UV Purity” value in data set [8] (three months at 40° C./75% RH) is 99.2%; in data set [8] (setting [9]), 99.3%. For the same compound, the “Most abundant impurity (area %)” value in data set [8] (three months at 40° C./75% RH, listed as Control) amounted to 0.13%; in data set [8] (three months at 40° C./75% RH, listed as control), 0.13%; in data set [8] (setting [9]), 0.13%.
